Here are results for 13 compounds from ChEMBL document CHEMBL3098109, “The identification of AF38469: an orally bioavailable inhibitor of the VPS10P family sorting receptor Sortilin” (Bioorg Med Chem Lett, 2014).

The structures appear in SMILES notation. Values after ≈ are worked out from the molar mass of the structure shown.

Data set [1] concerns the target Sortilin (Homo sapiens) (UniProt Q99523). Briefly: Displacement of [3H]-neurotensin from sortilin (unknown origin) at 50 uM incubated 30 mins prior to [3H]-neurotensin addition measured after 6 hrs by scintillation proximity assay.
Data set [2] in a line: Blood clearance in rat at 1 mg/kg, iv. The data set is classed as ADME, organism-based. On the set-up: dose 1 mg/kg, route intravenous. The conditions noted are these: whole blood.
Data set [3] is described as follows: Volume of distribution at steady state in rat at 1 mg/kg, iv. The data set is classed as ADME, organism-based. On the set-up: dose 1 mg/kg, route intravenous. The conditions noted are these: in vivo, read-out: Vdss.
Data set [4] can be described thus: Half life in rat at 1 mg/kg, iv. The data set is classed as ADME, organism-based. Set-up: dose 1 mg/kg, route intravenous. As to conditions: in vivo.
The nature of data set [5]: Free plasma concentration in rat. The data set is classed as ADME, cell-free.
Data set [6] can be described thus: Intrinsic clearance in rat. The class given is ADME, organism-based. As to conditions: in vivo.
The nature of data set [7]: Oral bioavailability in rat at 2 mg/kg. The data set is classed as ADME, organism-based. As to conditions: in vivo.
Data set [8] is described as follows: Cmax in rat at 2 mg/kg, po. As to conditions: in vivo. The data set is classed as ADME, organism-based. On the set-up: dose 2 mg/kg, route oral.
Data set [9] is described as follows: Solubility of the compound. The data set is classed as physicochemical.
Data set [10] has as its target T1, Sortilin (Homo sapiens, UniProt Q99523).
T1 sequence (Q99523 whole entry): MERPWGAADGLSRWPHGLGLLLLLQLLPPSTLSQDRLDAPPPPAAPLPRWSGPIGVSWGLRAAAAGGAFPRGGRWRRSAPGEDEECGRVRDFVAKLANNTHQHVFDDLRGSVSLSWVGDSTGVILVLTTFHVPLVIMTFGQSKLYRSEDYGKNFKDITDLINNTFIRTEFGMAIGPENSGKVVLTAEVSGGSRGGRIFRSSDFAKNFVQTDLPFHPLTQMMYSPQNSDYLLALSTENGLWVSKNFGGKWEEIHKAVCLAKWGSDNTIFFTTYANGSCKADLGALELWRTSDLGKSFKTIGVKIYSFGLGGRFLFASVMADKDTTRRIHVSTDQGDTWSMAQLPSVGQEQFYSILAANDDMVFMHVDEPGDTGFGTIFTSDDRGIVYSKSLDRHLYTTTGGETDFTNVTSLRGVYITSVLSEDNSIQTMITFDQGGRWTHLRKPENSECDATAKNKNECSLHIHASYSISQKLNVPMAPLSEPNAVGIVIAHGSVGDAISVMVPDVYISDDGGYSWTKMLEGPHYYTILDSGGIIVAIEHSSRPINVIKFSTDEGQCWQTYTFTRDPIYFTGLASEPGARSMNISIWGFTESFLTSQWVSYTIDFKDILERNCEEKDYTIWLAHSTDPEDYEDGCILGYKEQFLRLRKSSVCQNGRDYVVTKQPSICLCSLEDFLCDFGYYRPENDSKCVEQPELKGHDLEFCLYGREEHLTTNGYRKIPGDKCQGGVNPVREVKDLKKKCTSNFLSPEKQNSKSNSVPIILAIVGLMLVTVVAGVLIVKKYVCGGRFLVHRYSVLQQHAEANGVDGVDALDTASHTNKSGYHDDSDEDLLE

As for `Cc1ccc(C(=O)O)c(C(=O)Nc2cccc(C)n2)c1`, the inhibition in [1] stood at 57%.

For `CC(C)NC(=O)c1ccc(Br)cc1C(=O)O`, in [1], the inhibition was 35%.

Take `Cc1cccc(NC(=O)c2ccc(-c3ccccc3)cc2C(=O)O)n1`: the inhibition in data set [1] was found to be 2%.

`Cc1cccc(NC(=O)c2c(C)cccc2C(=O)O)n1` had an inhibition in [1] of 43%.

Consider `Cc1cccc(NC(=O)c2cccc(C)c2C(=O)O)n1`, for which the inhibition in data set [1] came to 5%.

In turn, `CCC(C)NC(=O)c1ccc(Br)cc1C(=O)O` (stereo not given) had an inhibition in [1] of 30%.

In data set [1], `Cc1cccc(NC(=O)c2ccccc2C(=O)O)n1` displayed an inhibition of 15%.

In turn, `Cc1cccc(NC(=O)c2cc(Cl)ccc2C(=O)O)n1` returned an inhibition in data set [1] of 69%.

Turning to `O=C(O)c1cc(Br)ccc1C(=O)Nc1ccccc1`, in data set [1], the inhibition turned out to be 69%.

Consider `Cc1ccc(NC(=O)c2ccc(Br)cc2C(=O)O)cn1`, for which the inhibition in data set [1] turned out to be 70%.

In turn, `Cc1cccc(NC(=O)c2ccc(C(F)(F)F)cc2C(=O)O)n1` had a clearance in [2] of 0.5 mL/min/kg. Moreover, the Vd in data set [3] was 0.02 L/kg. In [4], this compound gave a half-life of 1.2 h. Also, the fraction unbound in data set [5] turned out to be 0.02. The CLint scaled in data set [6] is 6.67 mL/min/kg. Moreover, the bioavailability in data set [7] worked out at 35%. In data set [8], this compound registered a Cmax of 12800 ng/mL. In addition, in data set [9], the concentration in solution (solubility) was 134 µg/mL (≈ 413 µM).

`Cc1cccnc1NC(=O)c1ccc(Br)cc1C(=O)O` came in with an inhibition in data set [1] of 64%.

`Cc1cc(=O)oc2c(CN[C@@H](CC(C)C)C(=O)O)c(O)ccc12` came in with an IC50 in data set [10] of 4 µM.

For orientation: inhibition means the percentage by which the read-out fell short of the control. The low end stands for a weak effect, the high end for a strong effect. As a reminder, the clearance is the volume of plasma or blood freed of the substance per unit of time. Higher therefore signals a high capacity for elimination. One may read the half-life as how long it takes for the measured level to halve. For orientation: fraction unbound means the share of the substance not bound to proteins or other matrix. Usually CLint scaled stands for the rate of metabolic loss divided by the concentration. Broadly, the bioavailability is the share of a dose that reaches the circulation, judged against a reference dose that is usually intravenous. A low value points to little systemic uptake. For orientation: Cmax means the highest concentration seen after dosing. By solubility is commonly meant how much of the substance goes into solution per volume. A low value points to a poorly soluble substance. By IC50 is commonly meant the concentration that gives 50% inhibition. A low value points to inhibition by little substance.
